Measured values: US9630925B2, “HSP90 inhibitor and preparation method and use thereof” (priority 2010, dated 2017)
One block for each compound: values may come before it.

Experiments:
[1] = system: Hsp90; conditions: background statement; cited from earlier work
[2] = system: Vero cells; assay: in vitro
Procedure: (§1) The cells were cultured overnight, and the culture solutions were discarded. […] Then the Vero cells were incubated for an additional 48 hours. The ATP levels in the Vero cells and the AK release quantity in the supernatant of the culture solutions were determined using kits from Lonza, US (Vialight HS kit and Toxilight bioassay kit). The maximum non-toxic concentration of the drug on the Vero cells within 48 hours were then assayed. The positive drug 17-AAG was used as control in the experiment (starting from 10 μM, double dilution of 6 concentrations).

[3] = system: human chronic myeloid leukemia cells (K562); assay: MTT proliferation inhibition, K562
Procedure: (§6) In this example, the positive control was 17-AAG (purchased from Alexis Biochemicals Company, US); and the applied cell lines of K562, Hela, A375, Mcf-7, etc., were all purchased from ATCC, Manassas, Va., USA.
Quadruplicate wells were set for each of the concentrations, and the experimental groups, the solvent control groups, and the blank groups were set for the experiments. The 96 well plates were placed in an incubator at 37° C., 5% CO2, and incubated for 48 hours.
(3) With reference to the MTT method established by Mosmann, 20 μL, MTT solution was added to each of the wells and incubation continued for 4 hours. The solution in each well was sucked out and discarded carefully. Then 100 mL DMSO was added to each of the wells, and the mixture shaken for 15 minutes on a shaker in the dark. The colorimetric measurements were carried out on a microplate reader (with a wavelength of 570 nm, and a reference wavelength of 630 nm), and the absorbances (A value) were determined. The half toxic concentration (IC50) of the drug was calculated.

[4] = system: human cervical carcinoma cells (Hela); assay: MTT proliferation inhibition, Hela
From the text: as §6
(§7) (2) Human cervical carcinoma cells (Hela), human malignant melanoma cells (A375), human laryngeal epithelial cancer cells (Hep-2), and human breast cancer cells (MCF-7) in logarithmic growth phase were taken, and regulated into single cell suspensions having a cell concentration of 2×10^5/mL with a DMEM culture medium containing 10% fetal bovine serum (purchased from GIBCO BRL, US). Then the single cell suspensions were seeded into 96 well plates, 100 μL/well. The cells were cultured overnight, making them attach to the wall. […] Quadruplicate wells were set for each of the concentrations, and the experimental groups, the solvent control groups, and the blank groups were set for the experiments. The 96 well plates were placed in an incubator at 37° C., 5% CO2, and incubated for 48 hours.
(§8) (3) With reference to the MTT method established by Mosmann, 20 μL, MTT solution was added to each of the wells and incubation continued for 4 hours. […] The colorimetric measurements were carried out on a microplate reader (with a wavelength of 570 nm, and a reference wavelength of 630 nm), and the absorbances (A value) were determined. The half toxic concentration (IC50) of the drug was calculated.

[5] = system: human malignant melanoma cells (A375); assay: MTT proliferation inhibition, A375
From the text: as §6, §7, §8

[6] = system: human breast cancer cells (MCF-7); assay: MTT proliferation inhibition, MCF-7
From the text: as §6, §7, §8

[7] = system: human laryngeal epithelial cancer cells (Hep-2); assay: MTT proliferation inhibition, Hep-2
From the text: as §6, §7, §8

[8] = system: Herpes Simplex Virus Type II Strain 333 (HSV-2 333); assay: Anti-HSV-2 activity by CPE method; type: cell-based; conditions: HSV-2, Vero, 48 hours
From the text: (§2) In this example, the Vero cell line (ATCC CCL81, purchased from ATCC, US) was used as the normal cell. […] The cytopathic effect (CPE) was then observed under an optical microscope.

[9] = system: Herpes Simplex Virus Type I Strain F (HSV-1 F); assay: Plaque reduction assay (PRA), HSV-1; type: cell-based; conditions: for IC50: Human alphaherpesvirus 1, plaque reduction, Vero, n = 3, read-out: Antiviral activity HSV-1 IC50
Procedure: (§3) In this example, the Vero cell line (ATCC CCL81, purchased from ATCC, US) was used as the normal cell.
(§4) The Vero cells were cultured to a monolayer on 24 well plates. […] The virus solutions were suck out and discarded. […] After observing for 72 hours, they were fixed for 30 minutes with 10% formaldehyde, stained for 30 minutes with 1% crystal violet, rinsed with water, and dried. The plaques were counted with reference to Nitta's method, and the plaque inhibition rate was calculated.
(§5) A curve graph was plotted with the logarithmic value of the drug concentration as the horizontal coordinate, and the plaque inhibition rate as the vertical coordinate.

[10] = system: Herpes Simplex Virus Type II Strain 333 (HSV-2 333); assay: Plaque reduction assay (PRA), HSV-2; type: cell-based; conditions: for IC50: Human alphaherpesvirus 2, plaque reduction, Vero, n = 3, read-out: Antiviral activity HSV-2 IC50
Procedure: as §3, §4, §5

[11] = in vitro; conditions: African green monkey
Procedure: as §1

[12] = system: Herpes Simplex Virus Type 1 Strain F (HSV-1 F); assay: Anti-HSV-1 activity by CPE method; type: cell-based; conditions: HSV-1, Vero, 48 hours
From the text: as §2

SMILES: CO[C@@H]1[C@@H](OC(N)=O)[C@@H](O)[C@H](Oc2ccc3c(O)c(NC(=O)c4ccc(O)c(CC=C(C)C)c4)c(=O)oc3c2C)OC1(C)C [Novobiocin]
- concentration used as an inhibitor of Hsp90 [1]: up to 700 μM

SMILES: C=CCNC1=C2C[C@@H](C)C[C@H](OC)[C@H](O)[C@@H](C)/C=C(\C)[C@H](OC(N)=O)[C@@H](OC)/C=C\C=C(/C)C(=O)NC(=CC1=O)C2=O [Compound 17-AAG, 17-allylaminogeldanamycin, reference compound]
- maximum non-toxic concentration ([2]; Vero cells, 48 hours): 0.63 µM
- IC50 ([3]; K562, MTT, 48 hours): 2.43 ± 0.68 µM
- IC50 ([4]; Hela, MTT, 48 hours): 5.42 ± 0.18 µM
- IC50 ([5]; A375, MTT, 48 hours): 3.13 ± 0.15 µM
- IC50 ([6]; MCF-7, MTT, 48 hours): 3.24 ± 0.15 µM
- IC50 ([7]; Hep-2, MTT, 48 hours): 2.33 ± 0.3 µM

- IC50 [9]: 4.16 ± 1.02 µM
- IC50 [10]: 3.32 ± 0.44 µM
SMILES: Nc1nc2c(ncn2COCCO)c(=O)[nH]1 [ACV, Acyclovir, reference compound]
- CPE ([8]; 0.16 μM): ++ (26%-50% ++)
- CPE ([8]; 0.31 μM): ++ (26%-50% ++)

SMILES: CC(=O)OC(CC(=O)OC1CCC(Nc2cc(-n3nc(C)c4c3CC(C)(C)CC4=O)ccc2C(N)=O)CC1)C[N+](C)(C)C.[Cl-] (stereo not shown) [Xbj-B16-1, 2-(4-(3-acetylcarnitineacyloxy)cyclohexylamino)-4-(1-(3,6,6-trimethyl-4-oxy-4,5,6,7-terahydroindazole))benzamide]
- CC50 at 48 h [11]: 47.8 ± 3.53 µM
- Toxity TC0 (the maximum non-toxic concentration) ([2]; African green monkey, 48 h): 12.5 µM
- maximum non-toxic concentration ([2]; African green monkey, 48 h): 12.5 µM
- CPE ([12]; 0.39 μM): ++++ (76%-100% ++++)
- CPE ([12]; 0.78 μM): ++++ (76%-100% ++++)
- CPE ([12]; 1.56 μM): ++++ (76%-100% ++++)
- CPE ([12]; 3.13 μM): +++ (51%-75% +++)
- CPE ([12]; 6.25 μM): ++ (26%-50% ++)
- CPE ([8]; 0.39 μM): ++++ (76%-100% ++++)
- CPE ([8]; 0.78 μM): ++++ (76%-100% ++++)
- CPE ([8]; 1.56 μM): ++++ (76%-100% ++++)
- CPE ([8]; 3.13 μM): +++ (51%-75% +++)
- CPE ([8]; 6.25 μM): +++ (51%-75% +++)
- CPE ([8]; 12.5 μM): + (0-25% +)
- IC50 [9]: 2.96 ± 0.56 µM
- HSV-1 TI (therapeutic index, TC50/IC50) ([9]; TC50/IC50): 16.14
- IC50 [10]: 3.2 ± 0.33 µM
- HSV-2 TI (therapeutic index, TC50/IC50) ([10]; TC50/IC50): 14.93
- IC50 ([3]; Homo sapiens, K562, 48 h): 8.31 ± 1.78 µM
- IC50 ([4]; Homo sapiens, HeLa, 48 h): 10.3 ± 2.48 µM
- IC50 ([5]; Homo sapiens, A-375, 48 h): 7.23 ± 1.31 µM
- IC50 ([6]; Homo sapiens, MCF7, 48 h): 9.53 ± 2.03 µM
- IC50 ([7]; Homo sapiens, HEp-2, 48 h): 6.37 ± 2.13 µM
